Patent US11219607B2, “Methods for suppressing cancer-related cachexia” (Ohio State Innovation Foundation, priority 2013, dated 2022)

Test system: LLC tumor-bearing mice
Assay: LLC mouse model of cachexia, hindlimb muscle mass
Assay type: in vivo
Conditions: LLC tumor-bearing C57BL/6 mice, 50 mg/kg p.o. every other day, day 6 to day 20
Experimental: In another aspect, subcutaneous tumors were established in male C57BL/6 mice (approximately 6 weeks of age; Harlan) by injection of 0.5×10^6 LLC cells into the right flank. Treatment with AR-42 and vehicle was performed as for the C-26 model beginning 6 days after cell injection. In both models, body weights and food consumption were monitored daily and tumor size was measured no less than every two days. Mice were fasted for 2 hours prior to sacrifice, at which time, hind limb muscles, heart, spleen, epididymal fat, and blood were collected and the weights of the solid tissues were measured. Muscle samples were frozen in liquid nitrogen-chilled 2-methylbutane and then stored at −80° C. until analysis.
To confirm that the anti-cachectic activity of AR-42 was not specific to the C-26 model, it was also evaluated in the LLC model. C57BL/6 mice bearing subcutaneous LLC tumors were treated with AR-42 (50 mg/kg, p.o., every other day) starting on day 6 after tumor cell injection, and continuing until day 20 when hind limb muscles were harvested at sacrifice.
To confirm that the anti-cachectic activity of AR-42 was not specific to the C-26 model, it was also evaluated in the LLC model. C57BL/6 mice bearing subcutaneous […] LLC tumors were treated with AR-42 (50 mg/kg, p.o., every other day) starting on day 6 after tumor cell injection, and continuing until day 20 when hind limb muscles were harvested at sacrifice.

CC(C)[C@H](C(=O)Nc1ccc(C(=O)NO)cc1)c1ccccc1 [AR-42, (S)—N-hydroxy-4-(3-methyl-2-phenylbutanamido)benzamide]
tibialis anterior mass, % of non-cachectic control (vehicle 80.3±4.0%): 93.4±3.9% | gastrocnemius mass, % of non-cachectic control (vehicle 81.7±3.7%): 92.2±3.5% | quadriceps mass, % of non-cachectic control (vehicle 84.4±4.6%): 93.4±4.8%
